Assay [1] has as its system passive Heymann nephritis in rats. Briefly: Passive Heymann nephritis in rats (model for membranous nephropathy). The assay is classed as in vivo, rat. The note with it: for combined histopathology score: p<0.005; for reduction of proteinuria: twice daily oral gavage, 14 days post transfer, p<0.0001; for proteinuria: 60 mg/kg twice daily oral gavage starting 6 days post serum transfer. The source says: 4. FB Inhibitor Prevents the Development and Progression of Passive Heymann Nephritis in Rats
Passive Heymann nephritis in the rat is the most common animal model for membranous nephropathy (see Jefferson J A, Pippin J W and Shankland S J 2010. Experimental Models of membranous nephropathy. Drug Discov Today Dis Models. 7(1-2):27-33). It is induced by the transfer of a polyclonal serum derived from rabbits immunized with rat megalin and manifests inflammatory changes in the kidney that are highly reminiscent with the human disease. Significant proteinuria is observed 4 days after the antibody transfer and increases until 2 weeks post transfer.

In assay [2] the test system is human microvascular endothelial cell line (HMEC-1). Briefly: C3 deposition on ADP-activated HMEC-1 exposed to STEC-HUS patient serum. It is filed as cell-based. The settings on record: for reduction of C3 deposition on ADP-activated HMEC-1: STEC-HUS patient serum, 4 hours, p<0.0001. Here is the method: As described in Morigi et al., 2011 (Morigi M, Galbusera M, Gastoldi S, Locatelli, M, Buelli, S, Pezzotta A, Pagani C, Noris M, Gobbi M, Stravalaci M, Rottoli D, Tedesco F, Remuzzi G and Joja C: 2011. Alternative pathway activation of complement by Shiga toxin promotes exuberant C3a formation that triggers microvascular thrombosis. J Immunol. 187(1):172-80), human microvascular endothelial cell line of dermal origin (HMEC-1, ATCC CRL-3243) were plated on glass slides and used when confluent. […]. At the end of the incubation step HMEC-1 were treated with fluorochrome-conjugated anti-human C3c. In each experiment, a pool of sera from healthy controls was tested in parallel with patient serum. A confocal inverted laser microscope was used for acquisition of the fluorescent staining on endothelial cell surface.
Fifteen fields per sample were acquired and the area occupied by the fluorescent staining was evaluated by automatic edge detection using built-in specific functions of the software Image J and expressed as pixel2 per field analyzed. The highest and lowest values were discarded and the mean±SE was calculated on the remaining 13 fields.
Results: Serum from patients with acute STEC-HUS induced a massive C3 deposition on ADP-activated endothelial cells in respect to sera from healthy controls (P<0.0001). […].

For the compound `CCO[C@H]1CCN(Cc2c(OC)cc(C)c3[nH]ccc23)[C@H](c2ccc(C(=O)O)cc2)C1` [compound of embodiment 5, 4-((2S,4S)-4-ethoxy-1-((5-methoxy-7-methyl-1H-indol-4-yl)methyl)piperidin-2-yl)benzoic acid], the combined histopathology score came to 0.3 in assay [1] (prophylactic, 20 mg/kg, vehicle 2.2); 0.4 in assay [1] (prophylactic, 60 mg/kg, vehicle 2.2); 1.1 in assay [1] (therapeutic, 60 mg/kg twice daily oral gavage starting day 6, vehicle 2.7). Besides, the reduction of proteinuria in assay [1] (prophylactic, 20 mg/kg/d) is given as 82%; in assay [1] (prophylactic, 60 mg/kg/d) it was 75%. In addition, the proteinuria in assay [1] (therapeutic, day 6 (control 0.79)) was 0.74; in assay [1] (therapeutic, day 14 (control 1.93)), 0.81. Further, the “effect on disease progression” value in assay [1] (therapeutic, 60 mg/kg twice daily oral gavage starting after manifestation of proteinuria (6 days post serum transfer)) is “blocked further progression of the disease”. The “reduction of C3 deposition on ADP-activated HMEC-1” value came to 73% in assay [2] (1 microM) and 89% in assay [2] (10 microM). The “C3 deposits on endothelial cells versus cells exposed to control sera” value in assay [2] (10 microM, STEC-HUS serum) is on record as “did not significantly differ”.

(Values after patent US12285422B2, “Uses of piperidinyl-indole derivatives” (priority 2017, dated 2025).)
